# Test results taken from US20260243757A1, “IMMUNE CELL-DERIVED SECRETOME” (Agency for Science, Technology and Research, priority 2023, published 2026).
# How the values were obtained:
# [1] = test system: CHLA01R (recurrent/relapse tumour cells); test: Drug treatment in secretome versus standard media (FIG. 41); type: cell-based, human; conditions: CHLA01R neurospheres
# CHLA-02 [2] = test: Flow cytometry for apoptotic cell death (Annexin V/PI); type: cell-based, human; conditions: CHLA-02 cells; 48 hours of OTSSP167 treatment
# Procedure: (§1) Tumour cells were treated in culture with OTSSP167 to detect apoptosis (FIG. 5C). At each timepoint, cells were harvested and stained with Annexin V-FITC and PI. Stained cells were then analysed by flow cytometry at the excitation wavelength of 488 nm (FITC) and 595 nM (PI). Cultured cells were treated with OTSSP167 to study the cell cycle changes. Cells were harvested and fixed with absolute ethanol. Fixed cells were stained with PI/RNase A master mix (PI and RNase A) prior to analysis by flow cytometry.
# BT-37 [3] = test: as above; type: cell-based, human; conditions: BT-37 cells; 48 hours of OTSSP167 treatment
# Procedure: as §1
# CHLA-02 [4] = test: Photomicrographs of growth morphology in T75 flasks; type: cell-based, human; conditions: OTSSP167 in secretome versus standard growth media
# six ATRT cell lines = test: Proliferation assay (standard growth media), panel; type: cell-based, human; conditions: over 13 days
# Procedure: (§2) Tumour cells were seeded in quadruplicates for each treatment condition (FIG. 5B). OTSSP167 was added. Cell proliferation was determined, and optical density (OD) was measured using a fluorescence/luminescence detection System.
# [5] = test system: ATRT cell lines and medulloblastoma; test: Drug efficacy in the presence of the secretome; type: cell-based, human; conditions: during early tumourigenesis
# CHLA-02 and BT-37 cells = test: Immunoblotting after OTSSP167 treatment; type: cell-based, human
# Procedure: Cells were lysed in RIPA buffer with 1% Protease and Phosphatase Inhibitor Cocktail on ice. Protein samples were first denatured with 5% β-mercaptoethanol in Laemmli's buffer at 95° C. Protein concentration was determined using Protein Assay Kit. Protein lysates were resolved, and equal amounts of denatured proteins was run on NuPAGE 4-12% Bis-Tris Protein Gel and transferred onto PVDF membrane. Membrane blots for phosphorylated Histone H2A.X were blocked with 5% Bovine serum albumin (BSA) in 1× TBS-T ([…] Tris-buffered Saline, 0.1 % Tween® 20). Other membrane blots were blocked with 5% skim milk in 1× TBS-T for 1 hour and incubated with its respective primary antibodies at 4° C. overnight. Protein bands were visualized using an imaging system with Western blotting substrate. Primary antibodies used were: Eg5, cleaved PARP, β-actin, cleaved caspase-3, and p53, p-Histone H2A.X, p21. Secondary antibodies included: anti-rabbit IgG HRP-linked and anti-mouse IgG HRP linked.
# CHLA-02, BT-37 = test: Cell proliferation assay (secretome-based or growth-media-based), DMSO or OTSSP167; set-up: species or system human
# Procedure: Human myeloid-derived cells (U937) were seeded at a fixed density and stimulated with PMA and IL-4 for 48 h to obtain CD 11b+ cells. Stimulated human myeloid-derived macrophages were harvested without trypsinization (Biological replicate 1 in FIG. 4D and FIG. 5E) and with trypsinization (Biological replicate 2 and 3 in FIG. 4D and FIG. 5E). These cells highly express CD11b+ with or without trypsinization (FIG. 14A). CD11b+ cells were washed twice with PBS. CD11b+ cells were plated at a fixed density in 1 ml of pure RPMI (serum-free) to obtain CD11b+ supernatants (Condition 2). CD11b+ cells (same density) were co-incubated with tumour cells at 1:1 ratio in pure RPMI (serum-free) to obtain co-culture supernatant (Condition 3). Tumour cells were seeded at the same density to obtain tumour supernatant (Condition 1). […]
# Tumour cells were suspended in 3 types of cell-free supernatants: CD 11b+ supernatant, tumour supernatant, and CD11b+-tumour co-culture supernatant. […] Cell viability was determined by a kit at 4 h, 24 h, 48 h, 72 h time points, over a period of 3 days. Optical density (OD) was measured using a fluorescence/luminescence detection system (FIGS. 4A, 4B, FIG. 18). All other absorbance (OD) was measured at 450 nm using a multilabel plate reader. Absorbance of wells with serum-free pure RPMI was used as blank.
# Daoy = test: Drug treatment in secretome versus standard media (FIG. 41); type: cell-based, human
# BT-37 [6] = test: Proliferation assay (standard growth media), OTSSP167 dose-response; type: cell-based, human
# Procedure: as §2
# CHLA-02 [7] = test: Apoptosis assay of OTSSP167-treated cells, standard growth media versus six-factor secretome; type: cell-based, human; conditions: FIG. 37
# Procedure: (§3) Tumour cells were cultured in either standard growth media or six-factor-secretome for […] different duration −4 h, 24 h, 48 h and 96 h (FIG. 5G). To study the killing effect of OTSSP167, tumour cells cultured in each condition (standard growth media or six-factor-secretome) were treated with OTSSP167. Cells were harvested at respective timepoints and stained with FITC-Annexin V and/or Propidium lodide. Stained cells were then analysed by flow cytometry at the excitation wavelength of 488 nm (FITC) and 595 nM (PI). A total of 10,000 cells were analysed per measurement.
# BT-37 [8] = test: as above; type: cell-based, human
# Procedure: as §3
# CHLA-02 [9] = test: Proliferation assay (standard growth media), OTSSP167 dose-response; type: cell-based; conditions: Homo sapiens, 96 h, Day 4
# Procedure: as §2
# D341 = test: Drug treatment in secretome versus standard media (FIG. 41); type: cell-based, human
# CHLA-04 = test: Proliferation assay (standard growth media), OTSSP167; type: cell-based, human; conditions: MELK-low CHLA-04; 50 nM dose
# Procedure: as §2
# [10] = test system: CHLA01 (primary tumour cells); test: Drug treatment in secretome versus standard media (FIG. 41); type: cell-based, human; conditions: CHLA01 neurospheres
# [11] = test system: autopsy-derived patient-derived orthotopic xenograft (PDOX) Model of ATRT; test: Orthotopic xenograft survival, intraperitoneal OTSSP167; type: in vivo, mice; conditions: 5 mg/kg daily intraperitoneal for 14 days; p=0.032, Log-rank test
# Procedure: (§4) Rag2/Severe combined immune deficiency (SCID) mice were bred and housed in a pathogen-free facility. Surgical implantation of tumour cells ([…]) into mouse cerebrum was performed using the method of the present disclosure previously described by studies in the art. The general recommendations in ARRIVE guidelines 2.0 (https://arriveguidelines.org/) were followed in the study of the present disclosure. The sample size of the present disclosure was small. […] The animals were randomly assigned into treatment versus control groups to have approximately equal number of animals per group. […] Treatment was delivered to animals assigned in treatment group, cage-by-cage. Blinding was not possible as the inventor of the present disclosure have a small team of 2-3 individuals working with the animals and the inventor of the present disclosure are all involved at various stages and day-to-day processes of the animal work. Separate batches comprising of various litters were used, minimizing bias from the same litter effect. The inventor of the present disclosure has previously published using this animal protocol and is not otherwise deposited in any repository/registry.
# OTSSP167 was dissolved in a solution of dimethyl sulfoxide, Kolliphor® EL and sterile water. […]
# Mice were carefully monitored daily their fitness using a clinical staging system we previously published. […]
# another ATRT mouse model = conditions: cited from earlier work
# Medulloblastoma = test: Ispinesib in PDX brain tumors implanted using secretome+Tumor (Batch 94B); type: in vivo, mice; conditions: 10 mg/kg intraperitoneally every four days for three doses, repeated on day 21
# Procedure: as §4
# OTSSP167 was dissolved in a solution of dimethyl sulfoxide, Kolliphor® EL and sterile water. A daily dose of 5 mg/kg of OTSSP167 was administered to the mice via intraperitoneal injection for 14 days. […]
smiles,measurement,setting,value
"CC(=O)c1cnc2ccc(-c3cc(Cl)c(O)c(Cl)c3)nc2c1N[C@H]1CC[C@H](CN(C)C)CC1 [OTSSP167, 1-(6-(3,5-dichloro-4-hydroxyphenyl)-4-(((1r,4r)-4-((dimethylamino)methyl)cyclohexyl)amino)-1,5-naphthyridin-3-yl)ethenone]",cell death/survival with drug in secretome compared to standard media,[1],survive better
same,early and late apoptotic cells,CHLA-02 [2],50.7%
same,early and late apoptotic cells,BT-37 [3],58.1%
same,growth morphology of tumour cells treated with OTSSP167 in secretome,CHLA-02 [4],"maintained their interlacing, web-like architecture"
same,efficacy across panel of ATRT cell lines (dose-response),six ATRT cell lines,efficacious across a panel of six ATRT cell lines in nanomolar ranges
same,drug efficacy in the presence of the secretome,[5],reduced
same,p-Histone H2A.X (DNA damage),"CHLA-02 and BT-37 cells; 24 h, 48 h and 72 h treatment",increased
same,c-PARP (intrinsic apoptosis pathway),CHLA-02 and BT-37 cells; OTSSP167 treatment,increased
same,p53,CHLA-02 and BT-37 cells; OTSSP167 treatment,increased
same,OTSSP167 efficacy in six-factor-secretome compared to standard growth media (tumour proliferation),"CHLA-02, BT-37",decreased
same,cell death/survival with drug in secretome compared to standard media,Daoy,higher cell death
same,IC50,"BT-37 [6]; Homo sapiens, 96 h, BT-37, Day 4",70.4 nM
same,effect against tumour cells,"BT-37 [6]; MELK-high BT-37 cells, 5 nM dose",effective
same,cell death with OTSSP167 in secretome compared to standard media conditions,CHLA-02 [7],more cell death
same,cell death with OTSSP167 in secretome compared to standard media conditions,"BT-37 [8]; BT-37, FIG. 38",more cell death
same,cell death of OTSSP167-treated BT-37 versus CHLA-02 in secretome,BT-37 [8]; in secretome after 24-48 h,more cell death than CHLA-02 cells
same,IC50,CHLA-02 [9],20.8 nM
same,cell death/survival with drug in secretome compared to standard media,D341,higher cell death
same,effect against tumour cells,CHLA-04,effective
same,cell death/survival with drug in secretome compared to standard media,[10],survive better
same,overall survival of animals,[11],significantly improved
same,blood-brain-barrier penetration,another ATRT mouse model,penetrate blood-brain-barrier
"Cc1ccc(C(=O)N(CCCN)[C@@H](c2nc3cc(Cl)ccc3c(=O)n2Cc2ccccc2)C(C)C)cc1 [Ispinesib, (R)-N-(3-aminopropyl)-N-(1-(3-benzyl-7-chloro-4-oxo-3,4-dihydroquinazolin-2-yl)-2-methylpropyl)-4-methylbenzamide]",cell death/survival with drug in secretome compared to standard media,[1],survive better
same,drug efficacy in the presence of the secretome,[5],reduced
same,cell death/survival with drug in secretome compared to standard media,D341,survive better
same,efficacy in PDX brain tumors implanted using secretome+Tumor,Medulloblastoma,effective
same,cell death/survival with drug in secretome compared to standard media,[10],survive better
